Several values for one entry are separate records, joined by “and”; a condition that tells them apart may be missing. Identical values can stand only once. Entries after “also recorded” stand apart in the source; their conditions may differ.
Key:
[1] = in vitro; conditions: African green monkey
[2] = tested on: HEK293T cells
[3] = target: T1, SARS-CoV-2 RdRp (Severe acute respiratory syndrome coronavirus 2, UniProt P0DTD1); test: cell-based; conditions: HEK293T cells, 18 h treatment; read-out: IC50, SARS-CoV-2 RdRp activity (NLuc/FLuc)
T1 construct: the RdRp expression plasmid, pCI-SARS-CoV-2 nsp12-N; expressed in transfected cells; host or cells: HEK293T

[4] = tested on: SARS-CoV-2; test: microbe, parasite or virus in culture; type: cell-based; conditions: Severe acute respiratory syndrome coronavirus 2, Vero, 24 h; read-out: IC50, inhibition of SARS-CoV-2 infection
[5] = tested on: MERS-CoV; test: microbe, parasite or virus in culture; type: cell-based; conditions: Middle East respiratory syndrome-related coronavirus, Vero, 24 h, read-out: IC50, inhibition of MERS-CoV infection
[6] = tested on: SARS-CoV; test: microbe, parasite or virus in culture; type: cell-based; conditions: Severe acute respiratory syndrome coronavirus, Vero, 24 h, read-out: IC50, inhibition of SARS-CoV infection
[7] = target: SARS-CoV-2 Mpro (Severe acute respiratory syndrome coronavirus 2, UniProt P0DTD1); test: SARS-CoV-2 Mpro activity inhibition assay (FRET peptide); type: biochemical; conditions: MBP-tagged Mpro, FRET peptide substrate, 30 min
[8] = target: SARS-CoV-2 PLpro (Severe acute respiratory syndrome coronavirus 2, UniProt P0DTD1); test: SARS-CoV-2 PLpro activity inhibition assay; type: biochemical; conditions: 25 μM compound
Procedure: The fluorescence intensity was measured at 360 nm/460 nm using a Synergy H1 microplate reader (Bio-Tek). GRL061 (BPS Bioscience) was used as a positive control.
To elucidate the mode of action of PGG and PAC, the effect of those compounds on the activity of the viral protease, Mpro, was examined using SARS-CoV-2 Mpro activity assay kits.

| SMILES | CC50 [1] [µM] | Cytotoxicity or inhibition of host transcription (FLuc internal control levels) [2] | IC50 [3] [µM] | IC50 [4] [µM] | IC50 [5] [µM] | IC50 [6] [µM] | IC50 [7] | Inhibition of SARS-CoV-2 PLpro activity [8] |
| --- | --- | --- | --- | --- | --- | --- | --- | --- |
| Oc1cc(O)c2c(c1)OC(c1ccc(O)c(O)c1)C(OC1(c3ccc(O)c(O)c3)Oc3cc(O)cc(O)c3C(O)C1O)C2 (centres unmarked) [PAC, proanthocyanidin] | > 50 | without cytotoxicity or the inhibition of host transcription | 21 ± 1.2 | 25.9 ± 0.81 | 4.95 ± 0.181 | 15.2 ± 0.28 | 25 to 26 µM and 26 µM | did not inhibit; also recorded: did not affect |
| O=C(OC[C@H]1O[C@@H](OC(=O)c2cc(O)c(O)c(O)c2)[C@H](OC(=O)c2cc(O)c(O)c(O)c2)[C@@H](OC(=O)c2cc(O)c(O)c(O)c2)[C@@H]1OC(=O)c1cc(O)c(O)c(O)c1)c1cc(O)c(O)c(O)c1 [PGG, 1,2,3,4,6-penta-O-galloyl-beta-D-glucose] | > 50 | without cytotoxicity or the inhibition of host transcription | – | 15 ± 0.75 | 3.47 ± 0.231 | 15.7 ± 1.02 | – | did not inhibit; also recorded: did not affect |

Reference: paper PMC9138959 (Biomedicines, 2022)
